Experimental data from PubChem BioAssay (NCI).
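96-well plates; 48 h exposure; 5 concentrations. Endpoints by linear interpolation between flanking doses. Not reached: highest tested concentration assigned. The concentration for full growth arrest is given as TGI.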

How the values were obtained:
Experiment in all cases: DTP human tumour cell line panel, 48 h
SNB-75 CNS = test system: SNB-75 CNS
LOX IMVI melanoma = test system: LOX IMVI melanoma
CAKI-1 renal = test system: CAKI-1 renal
RXF 393 renal = test system: RXF 393 renal
OVCAR-8 ovarian = test system: OVCAR-8 ovarian
KM20L2 colon = test system: KM20L2 colon
A498 renal = test system: A498 renal
KM12 colon = test system: KM12 colon
HCC-2998 colon = test system: HCC-2998 colon
SNB-19 CNS = test system: SNB-19 CNS
HT29 colon = test system: HT29 colon
HOP-92 NSCLC = test system: HOP-92 NSCLC
LXFL 529 NSCLC = test system: LXFL 529 NSCLC
HL-60(TB) leukemia = test system: HL-60(TB) leukemia
RPMI-8226 leukemia = test system: RPMI-8226 leukemia
HOP-18 NSCLC = test system: HOP-18 NSCLC
HCT-116 colon = test system: HCT-116 colon
ACHN renal = test system: ACHN renal
HOP-62 NSCLC = test system: HOP-62 NSCLC
XF 498 CNS = test system: XF 498 CNS
U251 CNS = test system: U251 CNS
M19-MEL melanoma = test system: M19-MEL melanoma
RXF-631 renal = test system: RXF-631 renal
UACC-62 melanoma = test system: UACC-62 melanoma
UO-31 renal = test system: UO-31 renal
NCI-H23 lung = test system: NCI-H23 lung
COLO 205 colon = test system: COLO 205 colon
SF-539 CNS = test system: SF-539 CNS
786-0 renal = test system: 786-0 renal
TK-10 renal = test system: TK-10 renal
DMS 273 small cell lung = test system: DMS 273 small cell lung
OVCAR-3 ovarian = test system: OVCAR-3 ovarian
M14 melanoma = test system: M14 melanoma
DMS 114 small cell lung = test system: DMS 114 small cell lung
OVCAR-4 ovarian = test system: OVCAR-4 ovarian
SN12C renal = test system: SN12C renal
SK-OV-3 ovarian = test system: SK-OV-3 ovarian
SK-MEL-2 melanoma = test system: SK-MEL-2 melanoma
EKVX NSCLC = test system: EKVX NSCLC
OVCAR-5 ovarian = test system: OVCAR-5 ovarian
SK-MEL-5 melanoma = test system: SK-MEL-5 melanoma
HCT-15 colon = test system: HCT-15 colon
SW-620 colon = test system: SW-620 colon
NCI-H460 lung = test system: NCI-H460 lung
SNB-78 CNS = test system: SNB-78 CNS
CCRF-CEM leukemia = test system: CCRF-CEM leukemia
MOLT-4 leukemia = test system: MOLT-4 leukemia
SF-295 CNS = test system: SF-295 CNS
UACC-257 melanoma = test system: UACC-257 melanoma
A549 NSCLC = test system: A549 NSCLC
DLD-1 colon = test system: DLD-1 colon
MALME-3M melanoma = test system: MALME-3M melanoma
K-562 leukemia = test system: K-562 leukemia
IGROV1 ovarian = test system: IGROV1 ovarian
NCI-H226 lung = test system: NCI-H226 lung

Measured: TGI

CSc1nc(NC2OCC(OC(C)=O)C(OC(C)=O)C2OC(C)=O)c(N=C(C)C(C)=O)c(=O)n1C (stereo not given)
> 100 µM: SNB-75 CNS | LOX IMVI melanoma | CAKI-1 renal | RXF 393 renal | OVCAR-8 ovarian | KM20L2 colon | A498 renal | KM12 colon | HCC-2998 colon | SNB-19 CNS | HT29 colon | HOP-92 NSCLC | LXFL 529 NSCLC | HL-60(TB) leukemia | RPMI-8226 leukemia | HOP-18 NSCLC | HCT-116 colon | ACHN renal | HOP-62 NSCLC | XF 498 CNS | U251 CNS | M19-MEL melanoma | RXF-631 renal | UACC-62 melanoma | UO-31 renal | NCI-H23 lung | COLO 205 colon | SF-539 CNS | 786-0 renal | TK-10 renal | DMS 273 small cell lung | OVCAR-3 ovarian | M14 melanoma | DMS 114 small cell lung | OVCAR-4 ovarian | SN12C renal | SK-OV-3 ovarian | SK-MEL-2 melanoma | EKVX NSCLC | OVCAR-5 ovarian | SK-MEL-5 melanoma | HCT-15 colon | SW-620 colon | NCI-H460 lung | SNB-78 CNS | CCRF-CEM leukemia | MOLT-4 leukemia | SF-295 CNS | UACC-257 melanoma | A549 NSCLC | DLD-1 colon | MALME-3M melanoma | K-562 leukemia | IGROV1 ovarian | NCI-H226 lung
